Assays:
Assay in all cases: Assay B: in vitro antibacterial activity, broth microdilution MIC (NCCLS)
Assay type in all cases: cell-based
[1] = system: Streptococcus pneumoniae ATCC 6303; conditions: Table 2, Assay B, Mueller Hinton broth with 3% lysed horse blood, 20 to 24 hr; code F = Streptococcus pneumoniae ATCC 6303; unit assumed
How it was run: (§1)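 NCCLS broth microdilution: cation-adjusted MH broth, ~5×10^5 CFU/mL, 35° C, 16–20 hr, visual endpoint of complete growth inhibition. Fastidious strains incubated 20–24 hr, S. pneumoniae with 3% lysed horse blood, H. influenzae with yeast extract, hematin and NAD.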

[2] = system: Haemophilus influenzae DILL AMP R; conditions: Table 2, Assay B, Mueller Hinton broth with yeast extract, hematin and NAD, 20 to 24 hr; code E = Haemophilus influenzae DILL AMP R; unit assumed
How it was run: as §1

[3] = system: Enterococcus faecalis PIU 1967; conditions: Table 2, Assay B, cation-adjusted Mueller Hinton broth, 35° C., 16 to 20 hr; code B = Enterococcus faecalis PIU 1967; unit assumed
How it was run: as §1

[4] = system: Staphylococcus aureus ATCC 6538P; conditions: Table 2, Assay B, cation-adjusted Mueller Hinton broth, 35° C., 16 to 20 hr; code A = Staphylococcus aureus ATCC 6538P; unit assumed
How it was run: as §1

Escherichia coli JUHL = conditions: Table 2, Assay B, cation-adjusted Mueller Hinton broth, 35° C., 16 to 20 hr; code D = Escherichia coli JUHL; unit assumed
How it was run: as §1

Structure (SMILES)	Antibacterial Activity (MIC's), F [1] [mg/L]	Antibacterial Activity (MIC's), E [2] [mg/L]	Antibacterial Activity (MIC's), B [3] [mg/L]	Antibacterial Activity (MIC's), A [4] [mg/L]	Antibacterial Activity (MIC's), D (Escherichia coli JUHL) [mg/L]
CON=C1Cc2cc(-c3ccc4c(=O)c(C(=O)O)cn(C5CC5)c4c3OC)sc2C1 [Example 248, 1-cyclopropyl-8-methoxy-7-((5E/Z)-5-(methoxyimino)-5,6-dihydro-4H-cyclopenta[b]thien-2-yl)-4-oxo-1,4-dihydro-3-quinolinecarboxylic acid]	0.5	0.5	0.25	0.03	2
COc1c(-c2cc3c(s2)CC(N)C3)ccc2c(=O)c(C(=O)O)cn(C3CC3)c12.Cl (stereo not shown) [Example 249, 7-(5-amino-5,6-dihydro-4H-cyclopenta[b]thien-2-yl)-1-cyclopropyl-8-methoxy-4-oxo-1,4-dihydro-3-quinolinecarboxylic acid hydrochloride]	0.5	0.015	0.125	0.03	0.06
COc1c(-c2cc3c(s2)CC(NC(C)=O)C3)ccc2c(=O)c(C(=O)O)cn(C3CC3)c12 (stereo not shown) [Example 252, 7-(5-(acetylamino)-5,6-dihydro-4H-cyclopenta[b]thien-2-yl)-1-cyclopropyl-8-methoxy-4-oxo-1,4-dihydro-3-quinolinecarboxylic acid]	1	0.25	1	0.5	4
COc1c(-c2cc3c(s2)CC(NS(C)(=O)=O)C3)ccc2c(=O)c(C(=O)O)cn(C3CC3)c12 (stereo not shown) [Example 254, 1-cyclopropyl-8-methoxy-7-(5-((methylsulfonyl)amino)-5,6-dihydro-4H-cyclopenta[b]thien-2-yl)-4-oxo-1,4-dihydro-3-quinolinecarboxylic acid]	0.25	0.06	0.5	0.06	1
COc1c(-c2cc3c(s2)CC(=NOCc2ccccc2)C3)ccc2c(=O)c(C(=O)O)cn(C3CC3)c12 [Example 255]	8	2	4	0.5	32
COc1c(-c2cc3c(s2)C(O)C2(CC3)CC2)ccc2c(=O)c(C(=O)O)cn(C3CC3)c12 (stereo not shown) [Example 267, 7-(7-hydroxy-6-spirocyclopropyl-4,5,6,7-tetrahydro-1-benzothien-2-yl)-1-cyclopropyl-8-methoxy-4-oxo-1,4-dihydroquinoline-3-carboxylic acid]	0.25	0.06	0.125	≤ 0.004	0.5
COc1c(-c2cc3c(s2)C(N)CC(C)(C)C3)ccc2c(=O)c(C(=O)O)cn(C3CC3)c12.Cl (stereo not shown) [Example 268, 7-(7-amino-5,5-dimethyl-4,5,6,7-tetrahydro-1-benzothien-2-yl)-1-cyclopropyl-8-methoxy-4-oxo-1,4-dihydroquinoline-3-carboxylic acid hydrochloride]	0.06	0.25	0.25	0.03	0.5
O=C(O)c1cn(C2CC2)c2cc(-c3cc4c(s3)C(O)CCC4)ccc2c1=O (stereo not shown) [Example 280, 1-cyclopropyl-7-(7-hydroxy-4,5,6,7-tetrahydro-1-benzothien-2-yl)-4-oxo-1,4-dihydroquinoline-3-carboxylic acid]	0.25	0.06	0.125	0.015	0.125
O=C(O)c1cn(C2CC2)c2cc(-c3cc4c(s3)CCCC4O)ccc2c1=O (stereo not shown) [Example 281, 1-cyclopropyl-7-(4-hydroxy-4,5,6,7-tetrahydro-1-benzothien-2-yl)-4-oxo-1,4-dihydroquinoline-3-carboxylic acid]	0.25	0.06	0.125	0.03	0.125
CNC1CCCc2sc(-c3cc4c(cc3F)c(=O)c(C(=O)O)cn4C3CC3)cc21.Cl (stereo not shown) [Example 290, 1-cyclopropyl-6-fluoro-7-(4-(methylamino)-4,5,6,7-tetrahydro-1-benzothien-2-yl)-4-oxo-1,4-dihydroquinoline-3-carboxylic acid hydrochloride]	0.03	0.015	0.125	0.03	0.03
CNC1CCCc2sc(-c3c(F)cc4c(=O)c(C(=O)O)cn(C5CC5)c4c3F)cc21.Cl (stereo not shown) [Example 291, 1-cyclopropyl-6,8-difluoro-7-(4-(methylamino)-4,5,6,7-tetrahydro-1-benzothien-2-yl)-4-oxo-1,4-dihydroquinoline-3-carboxylic acid hydrochloride]	0.03	0.015	0.125	0.015	0.03

The remaining lines, values ahead:

Antibacterial Activity (MIC's), F [1] [mg/L]	Antibacterial Activity (MIC's), E [2] [mg/L]	Antibacterial Activity (MIC's), B [3] [mg/L]	Antibacterial Activity (MIC's), A [4] [mg/L]	Antibacterial Activity (MIC's), D (Escherichia coli JUHL) [mg/L]	Structure (SMILES)
0.25	0.125	0.5	0.03	2	COC(=O)NC1Cc2cc(-c3ccc4c(=O)c(C(=O)O)cn(C5CC5)c4c3OC)sc2C1 (stereo not shown) [Example 251, 1-cyclopropyl-8-methoxy-7-(5-((methoxvycarbonyl)amino)-5,6-dihydro-4H-cyclopenta[b]thien-2-yl)-4-oxo-1,4-dihydro-3-quiunolinecarboxylic acid]
≤ 0.004	≤ 0.004	0.015	≤ 0.004	≤ 0.004	Cl.NC1CCCc2cc(-c3nc4c(cc3F)c(=O)c(C(=O)O)cn4C3CC3)sc21 (stereo not shown) [Example 271, 7-(7-amino-4,5,6,7-tetrahydro-1-benzothien-2-yl)-1-cyclopropyl-6-fluoro-4-oxo-1,4-dihydro-1,8-naphthyridine-3-carboxylic acid hydrochloride]
0.015	0.03	0.03	0.008	0.015	Cl.NC1CCCc2cc(-c3ccc4c(=O)c(C(=O)O)cn(C5CC5)c4n3)sc21 (stereo not shown) [Example 282, 7-(7-amino-4,5,6,7-tetrahydro-1-benzothien-2-yl)-1-cyclopropyl-4-oxo-1,4-dihydro-1,8-naphthyridine-3-carboxylic acid hydrochloride]
0.03	0.03	0.125	0.03	0.06	Cl.NC1CCCc2sc(-c3ccc4c(=O)c(C(=O)O)cn(C5CC5)c4c3)cc21 (stereo not shown) [Example 287, 7-(4-amino-4,5,6,7-tetrahydro-1-benzothien-2-yl)-1-cyclopropyl-4-oxo-1,4-dihydroquinoline-3-carboxylic acid hydrochloride]
0.03	0.015	0.125	0.03	0.03	Cl.NC1CCCc2cc(-c3ccc4c(=O)c(C(=O)O)cn(C5CC5)c4c3)sc21 (stereo not shown) [Example 288, 7-(7-amino-4,5,6,7-tetrahydro-1-benzothien-2-yl)-1-cyclopropyl-4-oxo-1,4-dihydroquinoline-3-carboxylic acid hydrochloride]
0.03	≤ 0.004	0.008	≤ 0.004	0.015	O=C(O)c1cn(C2CC2)c2cc(-c3cc4c(s3)C(O)CCC4)c(F)cc2c1=O (stereo not shown) [Example 293, 1-cyclopropyl-6-fluoro-7-(7-hydroxy-4,5,6,7-tetrahydro-1-benzothien-2-yl)-4-oxo-1,4-dihydroquinoline-3-carboxylic acid]

From patent publication US20020049223A1, “Quinoline and naphthyridine carboxylic acid antibacterials” (priority 1999, published 2002)
